According to patent publication US11072619B2, “Pyrazole[1,5-a] pyrimidine derivatives as kinase JAK inhibitors” (CELON PHARMA S.A., priority 2017, dated 2021):

Tested on: TNFα secreted by lymphocytes T
Assay: Inhibition of TNFα production by lymphocytes T in vitro
Assay type: cell-based
Settings: Lymphocyte, 48 hours, human CD4+ lymphocytes T; for inhibition at 0.01 µM: 10 nM; for inhibition at 0.1 µM: 100 nM; for inhibition at 1 µM: 1000 nM
Procedure: Assay for Inhibition of TNFα and INFγ Production by Lymphocytes T In Vitro
The activity of the compounds of the invention was tested using in vitro assay described below.
Tested compounds were dissolved in 100% DMSO, and obtained stock solutions were serially diluted with OptiMEM medium (Reduced Serum Medium-Thermo Fisher Scientific). Lymhocytes were isolated from leukocyte top coat layer obtained from human peripheral blood. Isolation of peripheral blood mononuclear cells was performed using Ficoll-Paque+Leucosept gradient method, with lymphocytes isolation using CD4+ T Cell Isolation Kit, and activation using T Cell Activation/Expansion Kit (Miltenyi Biotec). Isolated cells in culture medium (90% RPMI 1640+10% FBS) were sived on 12-well plates at 450 μL/well, 300 thousands/well, and 50 μL of prepared 10× stock solutions of tested compounds were added. After 48 hours supernatant was collected for determination of the level of secreted cytokines. Before determination, cells were centrifuged at 1000 g, 10 min. Determination was performed with flow cytometer FACS Calibur using LEGENDplex Human Th cytokine kit. Results are presented in Table 3 as a percentage of inhibition of TNFα i INFγ cytokines secreted by lymphocytes T with reference to control cells.

Row | Compound | inhibition at 0.01 µM | inhibition at 0.1 µM | inhibition at 1 µM
1 | COc1ccc(-c2cc3ncc(C(N)=O)c(N[C@@H]4CCN(c5ccc(C#N)nn5)CC4(C)C)n3n2)cn1 [Example 4, (R)-7-((1-(6-Cyanopyridazin-3-yl)-3,3-dimethylpiperidin-4-yl)amino)-2-(6-methoxy-pyridin-3-yl)pyrazolo[1,5-a]pyrimidine-6-carboxamide] | 57.1% | 78.7% | 95.3%
2 | CC1(C)CN(c2ccc(C#N)nn2)CC[C@H]1Nc1c(C(N)=O)cnc2cc(-c3ccc(N4CCOCC4)nc3)nn12 [Example 7, (R)-7-((1-(6-Cyanopyridazin-3-yl)-3,3-dimethylpiperidin-4-yl)amino)-2-(6-morpholinopyridin-3-yl)pyrazolo[1,5-a]pyrimidine-6-carboxamide] | 60.6% | 76% | 98.5%
3 | COc1cccc(-c2cc3ncc(C(N)=O)c(N[C@@H]4CCN(c5ccc(C#N)nn5)CC4(C)C)n3n2)n1 [Example 11, (R)-7-((1-(6-Cyanopyridazin-3-yl)-3,3-dimethylpiperidin-4-yl)amino)-2-(6-methoxy-pyridin-2-yl)pyrazolo[1,5-a]pyrimidine-6-carboxamide] | 57.4% | 88.1% | 88.5%
4 | Cc1cc(-c2cc3ncc(C(N)=O)c(N[C@@H]4CCN(c5ccc(C#N)nn5)CC4(C)C)n3n2)ccn1 [Example 12, (R)-7-((1-(6-Cyanopyridazin-3-yl)-3,3-dimethylpiperidin-4-yl)amino)-2-(2-methyl-pyridin-4-yl)pyrazolo[1,5-a]pyrimidine-6-carboxamide] | 76.2% | 75.8% | 95.4%
